Reference: ChEMBL document CHEMBL4425181, “Synthesis and antileishmanial activity of the core structure of cristaxenicin A” (Bioorg Med Chem Lett, 2016)

How the values were obtained:
Assay type in all cases: functional, organism-based
Leishmania amazonensis = experiment: Antileishmanial activity against Leishmania amazonensis promastigotes after 72 hrs by EGFP-reporter gene based fluorescence assay
Trypanosoma congolense = experiment: Antitrypanosomal activity against Trypanosoma congolense IL3000 incubated for 48 hrs measured after 4 hrs
Leishmania donovani = experiment: Antileishmanial activity against Leishmania donovani MHOM/NP/03/D10 promastigotes after 72 hrs by EGFP-reporter gene based fluorescence assay; settings: MHOM/NP/03/D10, 72 h

SMILES	IC50 (Leishmania amazonensis)	IC50 (Trypanosoma congolense)	IC50 (Leishmania donovani)
CC(=O)O/C=C1\CCC/C(C=O)=C\C[C@@H]2C(C(=O)CC=C(C)C)=CO[C@H](OC(C)=O)[C@@H]12	88 nM	250 nM	–
CO[C@H]1OC=C(C(=O)OC(C)C)[C@H]2C/C=C(/C=O)CCCC(=O)[C@H]12	–	–	2400 nM
